Reference: PubChem BioAssay AID2060490 (Molecular Pharmacology Branch, DTP, NCI, 2025)

Test system: 885512-296-R-J2-PDC complex spheroid viability
Test: Anticancer human tumor 885512-296-R-J2-PDC patient-derived breast carcinoma cell line growth inhibition [GQUAD]
Details: for IC50: curve of first compound; for viability, T/C: stronger effect = lower value; active = viability on the fitted dose curve at most 10% of control; inactive = the rest
Method in brief: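 Multi-cell-type spheroids of tumor cells with HUVEC and mesenchymal stem cells, treated with drug combinations. Concentrations descend in half-log steps from near clinical Cmax, or from 10 microM where Cmax is unknown; viability read-out.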
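Note: spheroids exposed to the compounds for one week.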
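Throughout, for viability, T/C: percent of tumor spheroid viability relative to DMSO vehicle control wells.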

CCCS(=O)(=O)Nc1ccc(F)c(C(=O)c2c[nH]c3ncc(-c4ccc(Cl)cc4)cc23)c1F + Cc1cnc(CNC(=O)c2c(=O)c3ccc(N4CCCN(C)CC4)nc3n3c2sc2ccccc23)cn1
> 10000 nM: IC50 (second compound 0.0316 µM) | IC50 (second compound 0.1 µM)
< 31.6 nM: IC50 (second compound 0.316 µM) | IC50 (second compound 1 µM) | IC50 (second compound 3.16 µM) | IC50 (second compound 10 µM)
inactive: viability, T/C (second compound 0.0316 µM, first compound 0.0316 µM) 97.5% | viability, T/C (second compound 0.0316 µM, first compound 0.1 µM) 93.9% | viability, T/C (second compound 0.0316 µM, first compound 0.316 µM) 97.1% | viability, T/C (second compound 0.0316 µM, first compound 1 µM) 91.7% | viability, T/C (second compound 0.0316 µM, first compound 3.16 µM) 102% | viability, T/C (second compound 0.0316 µM, first compound 10 µM) 58.8% | viability, T/C (second compound 0.1 µM, first compound 0.0316 µM) 65.8% | viability, T/C (second compound 0.1 µM, first compound 0.1 µM) 61% | viability, T/C (second compound 0.1 µM, first compound 0.316 µM) 64.3% | viability, T/C (second compound 0.1 µM, first compound 1 µM) 67.6% | viability, T/C (second compound 0.1 µM, first compound 3.16 µM) 71.2% | viability, T/C (second compound 0.1 µM, first compound 10 µM) 41.5% | viability, T/C (second compound 0.316 µM, first compound 0.0316 µM) 30.3% | viability, T/C (second compound 0.316 µM, first compound 0.1 µM) 24.9% | viability, T/C (second compound 0.316 µM, first compound 0.316 µM) 22.9% | viability, T/C (second compound 0.316 µM, first compound 1 µM) 34.2% | viability, T/C (second compound 0.316 µM, first compound 3.16 µM) 45.6% | viability, T/C (second compound 0.316 µM, first compound 10 µM) 25.4% | viability, T/C (second compound 1 µM, first compound 0.0316 µM) 19.2% | viability, T/C (second compound 1 µM, first compound 0.1 µM) 26% | viability, T/C (second compound 1 µM, first compound 0.316 µM) 26.4% | viability, T/C (second compound 1 µM, first compound 1 µM) 33.6% | viability, T/C (second compound 1 µM, first compound 3.16 µM) 36% | viability, T/C (second compound 1 µM, first compound 10 µM) 22.7% | viability, T/C (second compound 3.16 µM, first compound 0.0316 µM) 20.9% | viability, T/C (second compound 3.16 µM, first compound 0.1 µM) 29.3% | viability, T/C (second compound 3.16 µM, first compound 0.316 µM) 26.5% | viability, T/C (second compound 3.16 µM, first compound 1 µM) 25.8% | viability, T/C (second compound 3.16 µM, first compound 3.16 µM) 24.5% | viability, T/C (second compound 3.16 µM, first compound 10 µM) 0.29%
active: viability, T/C (second compound 10 µM, first compound 0.0316 µM) 0.15% | viability, T/C (second compound 10 µM, first compound 0.1 µM) 0.16% | viability, T/C (second compound 10 µM, first compound 0.316 µM) 0.18% | viability, T/C (second compound 10 µM, first compound 1 µM) 0.17% | viability, T/C (second compound 10 µM, first compound 3.16 µM) 0.15% | viability, T/C (second compound 10 µM, first compound 10 µM) 0.18%
